From patent US11203578B2, “Oxadiazole derivatives for the treatment of genetic diseases due to nonsense mutations” (UNIVERSITA' DEGLI STUDI DIPALERMO, priority 2017, dated 2021) come the findings set out here.

One data set deals with HeLa cells. Kind of data set: Cytotoxic effects and impact on cell proliferation in HeLa cells. The class given is cell-based. Particulars: 12 μM. Here is the method: HeLa cells were used to determine the possible cytotoxic effects of our compounds and the impact on cell proliferation. In FIG. 7 are reported the percentages of dead cells and proliferating cells after treatment with 12 μM compounds and 12 μM ATALUREN.

Data set [1] has as its system pFLuc-opal (UGA stop mutation). The data set can be described thus: FLuc cell-based readthrough assay in HeLa FLuc-opal transfected cells. Particulars: 12 μM, 24 hours treatment, pFluc-opal HeLa cells, compared to untreated. From the text: The results disclosed in (Pibiri I., Lentini L., Tutone M., Melfi R., Pace A., Di Leonardo A. Exploring the readthrough of nonsense mutations by non-acidic Ataluren analogues selected by ligand-based virtual screening. Eur. J. Med. Chem. 122 (2016) 429-435) have been refined with 3D-QSAR (quantitative structure-activity relationships) pharmacophore modelling. The endpoint to build QSAR models was the luciferase activity known data. These values were converted to pFLUC (−log FLUC) values. In order to find the common pharmacophore hypothesis, we divided the 24 compounds in three different classes of activity related to the FLUC values (Pharm set). We considered as active, compounds with FLUC values >4.52 (ATALUREN FLUC value), as inactives, compounds with FLUC values ≤4.00, and as moderate actives, compounds with 4.39≤FLUC values ≤4,51. Dataset was randomly split into a training set (19 compounds) for models generation, and test set (5 compounds) for the validation of developed models, as reported in Table 1.
To ascertain the effectiveness of the newly synthesized ataluren analogues in promoting the readthrough of premature termination codons was used the FLuc cell-based assay. To this aim HeLa cells were transfected transiently with the plasmids pFLuc-wild type (control) and pFLuc-opal (UGA stop mutation) (NIH Chemical Genomics Center, National Institutes of Health, Bethesda, USA). FLuc gene expression was then measured by luminescence.

The subject of a further data set is nsCFTR-R553X-opal. The data set can be described thus: Immunofluorescence analysis of CFTR in nsCFTR-R553X-opal FRT cells. The class given is cell-based, human. Particulars: 12 μM, 24 hours. Here is the method: (§1) FRT cells were also engineered with a vector expressing nsCFTR (nonsense). To this aim, Site […] Directed Mutagenesis of the full-length CFTR cDNA cloned in the pTracer Zeocin (pTCF-wild type) vector (provided by Gaslini Hospital Genova, Italy) was performed, the CFTR DNA is available at NCBI Reference Sequence NG_016465.4. With the aim of introducing in the CFTR cDNA single base mutations c1654t or c1657t to convert, respectively, […] 552 (caa>taa ochre) or Arginine 553 (cga>tga opal) in nonsense codons, site-directed mutagenesis of the full-length cDNA cloned in the pTracer Zeocin (pTCF-wild type) vector (provided by Gaslini Hospital Genova, Italy) was performed (CFTR DNA available at NCBI Reference Sequence: NG_016465.4). The pTCF-wild type vector was amplified by PCR with the following primers: […]
(§2) To further evaluate the efficacy of NV848, NV914 and NV930 FRT cells were transfected with the pTracer vectors containing either the WT-CFTR (CFTRWT) or the R553X-CFTR and the Q552X-CFTR (nsCFTR-R553X-opal, nsCFTR-Q552X ochre) human cDNA and selected by Zeocin resistance. The expression of the CFTRWT and nsCFTR CFTR (nsCFTR-R553X-opal, nsCFTR-Q552X ochre) in transfected FRT cells was evaluated by qRT-PCR. The nsCFTR-Q552X ochre, nsCFTR-R553X-opal FRT transfected cells were treated with NV848, (12 μM), and ATALUREN (12 μM) as positive control, for 24 hours and the expression of the human CFTR was evaluated by immunofluorescence analysis.

Another data set has as its system nsCFTR(G542X-opal). Kind of data set: Immunofluorescence analysis of CFTR in nsCFTR(G542X-opal) FRT cells. The class given is cell-based, human. Particulars: 12 μM, 24 hours. The procedure: To work in a cell system containing exclusively nonsense mutations and in particular the more representative CFTR nonsense mutation, the G542X, FRT cells were engineered with a vector expressing nsCFTR (nonsense). To this aim, Site Directed Mutagenesis of the full-length CFTR cDNA cloned in the pTracer-Zeocin (pTCF-wild type) vector (Gaslini Hospital Genova, Italy) was performed (CFTR DNA available at NCBI Reference Sequence: NG_016465.4). To substitute the Glicine 542 coding codon GGA with a stop codon, was introduced a single nucleotide mutation. The first guanine of the codon, position 1624 of the cDNA, was changed in a thymine to introduce an opal nonsense mutation. We amplified the plasmid harbouring cDNA with the following primers: […]
To further evaluate the efficacy of NV914, NV848, NV930, FRT cells were transfected with the pTRACER vectors containing either the wild type CFTR or the nsCFTR(G542X-opal) cDNA and selected by Zeocin resistance. The advantage of the use of these cells is that they don't express cAMP dependent channels (as CFTR) or CFTR protein. The expression of the human CFTR wild type and nsCFTR(G542X-opal) in transfected FRT cells was evaluated by qRT-PCR and Western blot, as shown in FIG. 5.
The same FRT cells were then treated with NV914, NV848, NV930 (12 μM), and ATALUREN (12 μM) (as positive control) for 24 hours and the expression of the human CFTR wild type and nsCFTR(G542X-opal) was again evaluated by immunofluorescence analysis.
FRT cells transfected with a pTracer nsCFTR-G542X-opal vector the treated with NV848, NV914, NV930 (12 μM), and ATALUREN (12 μM) as positive control, for 24 hours and the expression of the human CFTR wild type and nsCFTR (nsCFTR-G542X-opal) was evaluated by immunofluorescence analysis.
In details, immunofluorescence analysis was used to detect the CFTR protein following the readthrough of the UGA stop codon in nsCFTR(opal) FRT cells untreated, treated with G418 as positive contro) and with PTC124 and NV848, Nv914, NV930 for 24 h. […] Nuclei (blue) were DAPI stained.

The next data set has as its system nsCFTR-Q552X ochre. The data set can be described thus: Immunofluorescence analysis of CFTR in nsCFTR-Q552X ochre FRT cells. The class given is cell-based, human. Particulars: 12 μM, 24 hours. The procedure: as §1, §2

`CC(=O)Nc1noc(C)n1` [NV848, 3-acetylamino-5-methyl-1,2,4-oxadiazole]: the figures for the dead cells in the data set on HeLa cells (24 h) and in the data set with HeLa cells (72 h) were 7% and 6%, respectively. Further, the luciferase activity entry in data set [1] is listed as “significant increase of luciferase activity”. Besides, the “CFTR full-length expression and membrane localization” value was “induced the CFTR full-length expression and membrane localization” in the data set with nsCFTR-R553X-opal; “induced the CFTR full-length expression and membrane localization” with nsCFTR(G542X-opal); “induced the CFTR full-length expression and membrane localization” with nsCFTR-Q552X ochre.

As for `O=C(Nc1noc(-c2c(F)c(F)c(F)c(F)c2F)n1)c1c(F)c(F)c(F)c(F)c1F` [NV914, 2,3,4,5,6-pentafluoro-N-(5-(perfluorophenyl)-1,2,4-oxadiazol-3-yl)benzamide], the dead cells in the data set on HeLa cells (24 h) was found to be 5%; in the data set on HeLa cells (72 h), 2%. Moreover, in data set [1], the luciferase activity entry is recorded as “significant increase of luciferase activity”. Also, the “CFTR full-length expression and membrane localization” value in the data set with nsCFTR-R553X-opal was “induced the CFTR full-length expression and membrane localization”; with nsCFTR(G542X-opal), “induced the CFTR full-length expression and membrane localization”; in the data set with nsCFTR-Q552X ochre, “induced the CFTR full-length expression and membrane localization”.

For the molecule `CCOC(=O)c1noc(-c2ccccc2)n1` [NV930, ethyl 5-phenyl-1,2,4-oxadiazole-3-carboxylate], the dead cells in the data set on HeLa cells (24 h) was found to be 2%; with HeLa cells (72 h) it was 4%. Further, the luciferase activity entry in data set [1] was “significant increase of luciferase activity”. Further, the “CFTR full-length expression and membrane localization” value in the data set on nsCFTR-R553X-opal is “induced the CFTR full-length expression and membrane localization”; in the data set with nsCFTR(G542X-opal), “induced the CFTR full-length expression and membrane localization”; with nsCFTR-Q552X ochre, “induced the CFTR full-length expression and membrane localization”.
